From patent US20260159497A1, “SOLID FORMS OF A COMPLEMENT FACTOR B INHIBITOR” (Novartis Pharma AG, priority 2022, published 2026)
Where two headings read alike, the source gives them in different places.

Tests used:
[1] = Solubility in Simulated Fluids at 37° C.; assay type: physicochemical; details: for solubility at 30 min / solubility at 24 h: 37 °C, thermodynamic from solid; for solubility at 30 min: read-out: Solubility (mg/mL) 30 min; for solubility at 24 h: read-out: Solubility (mg/mL) 24 h
Source text: Solubility data of Form A (S)-4-(2,2-difluoro-7-((5-methoxy-7-methyl-1H-indol-4-yl)methyl)-7-azaspiro[3.5]nonan-6-yl)benzoic acid, Form B (S)-4-(2,2-difluoro-7-((5-methoxy-7-methyl-1H-indol-4-yl)methyl)-7-azaspiro[3.5]nonan-6-yl)benzoic acid p-toluene sulfonic acid salt, Form C (S)-4-(2,2-difluoro-7-((5-methoxy-7-methyl-1H-indol-4-yl)methyl)-7-azaspiro[3.5]nonan-6-yl)benzoic acid p-toluene sulfonic acid salt, and Form D (S)-4-(2,2-difluoro-7-((5-methoxy-7-methyl-1H-indol-4-yl)methyl)-7-azaspiro[3.5]nonan-6-yl)benzoic acid hydrochloride salt in Simulated Fluids at 37° C.

[2] = Dynamic vapor sorption (DVS) mass change; assay type: physicochemical; details: 95% RH at 25° C.
Source text: [table] The mass change by DVS isotherm (2 cycles 40-0-95-0-40% RH) are in the tables below. The mass change is based on the dry weight of each.

[3] = after 12 weeks of treatment; cited from earlier work
[4] = Pharmacokinetic study after oral dosing, dog; details: in vivo, solution in 20% kleptose in water, Dog beagle male, Fasted, 5 mL/kg; for AUC(0-t): read-out: AUC0-24 h; for concentration at 24 h: read-out: C24 h
Protocol: (§1) The pharmacokinetic profile of (S)-4-(2,2-difluoro-7-((5-methoxy-7-methyl-1H-indol-4-yl)methyl)-7-azaspiro[3.5]nonan-6-yl)benzoic acid was assessed in rats, dogs or non-human primates (NHPs) as the amorphous compound as a solution in 20% kleptose in water and as a suspension of Form A in 0.5% methocel+0.1% tween 80 in water.
(§2) Amorphous (S)-4-(2,2-difluoro-7-((5-methoxy-7-methyl-1H-indol-4-yl)methyl)-7-azaspiro[3.5]nonan-6-yl)benzoic acid was weighed into a glass vial with a magnetic stir bar to give formulations at dose concentrations of 0.1-1000 mg/kg. Approx. ⅓ the final volume of 20% kleptose (hydroxypropyl β-cyclodextrin, Aldrich, CAS #128446-35-5) in water was added to the vial (to afford either a 5 mL/kg or 10 mL/kg dose volume, depending on the species). The mixture was basified to a pH of 8.5 to 10 using dropwise addition of 2-5 M aqueous NaOH solution, with pH monitoring. The suspension was stirred, vortexed, and sonicated for 15-20 minutes to afford a homogenous mixture. The second ⅓ of the final volume of 20% kleptose was added to the vial and further stirred, vortexed, and sonicated for 15-20 minutes to afford a homogenous mixture. The pH was monitored and further pH adjustment to pH 8.5 to 10, if necessary, can be applied. The final ⅓ the final volume of 20% kleptose was added to the vial and further stirred, vortexed, and sonicated for 15-20 minutes to afford a homogenous solution. The pH of the solution was adjusted to a pH of 7.5 to 8.0 with dropwise addition of 1.0 M aqueous HCl solution with gentle stirring. The formulation should remain in solution.

[5] = Pharmacokinetic study after oral dosing, non-human primate; details: cynomolgus monkey, in vivo, solution in 20% kleptose in water, Cyno male, 30 mg/kg, Fed, 5 mL/kg
Protocol: as §1, §2

[6] = Pharmacokinetic study after oral dosing, rat; assay type: in vivo, SD Rat; details: male, SD (Sprague-Dawley), rat, in vivo, po, solution in 20% kleptose in water, SD Rat male, Fed, 10 mL/kg; for AUC(0-t) / concentration at 24 h: oral; for AUC(0-t): read-out: AUC0-24 h; for concentration at 24 h: read-out: C24 h
Protocol: as §1, §2
Form A crystalline (S)-4-(2,2-difluoro-7-((5-methoxy-7-methyl-1H-indol-4-yl)methyl)-7-azaspiro[3.5]nonan-6-yl)benzoic acid was weighed into a glass vial with a magnetic stir bar to give formulations at dose concentrations of 0.1-1000 mg/kg. The crystalline material should preferably have a particle size with a D50 below 50 μm, and ideally with a D50 below 5 μm. The desired volume of 0.5% methocel (viscosity 400 cP, Aldrich, CAS #9004-67-5)/0.1% tween-80 (Aldrich, CAS #9005-65-6) was added (to afford a 5 mL/kg dose volume). The contents of the vial were stirred at 400-500 rpm on a stir-plate. Gentle vortex or bath sonication can be applied to break down any large clumps. The vial should be mixed well to ensure homogeneity right before animal dosing.

[7] = fassgf or other biorelevant, FaSSGF, 24 h

## COc1cc(C)c2[nH]ccc2c1CN1CCC2(C[C@H]1c1ccc(C(=O)O)cc1)CC(F)(F)C2.Cl [Form D, (S)-4-(2,2-difluoro-7-((5-methoxy-7-methyl-1H-indol-4-yl)methyl)-7-azaspiro[3.5]nonan-6-yl)benzoic acid hydrochloride salt]
[1]; fassgf or other biorelevant, FaSSGF, 30 min
  solubility at 30 min: 2.25 mg/mL
[1]; [7]
  solubility at 24 h: > 2 mg/mL
[1]; fassif, FaSSIF, 30 min
  solubility at 30 min: 2.19 mg/mL
[1]; fassif, FaSSIF, 24 h
  solubility at 24 h: > 2 mg/mL
[1]; fessif, FeSSIF, 30 min
  solubility at 30 min: 2.19 mg/mL
[1]; fessif, FeSSIF, 24 h
  solubility at 24 h: 2.33 mg/mL
[1]; pH 7, water, Water, initial pH 7.00, 30 min
  solubility at 30 min: 2.08 mg/mL
[1]; pH 7, water, Water, initial pH 7.00, 24 h
  solubility at 24 h: > 2 mg/mL
[1]; FaSSGF
  pH at 24 h: 1.57
[1]; FaSSIF
  pH at 24 h: 6.17
[1]; FeSSIF
  pH at 24 h: 4.95
[1]; Water, initial pH 7.00
  pH at 24 h: 3.13

## COc1cc(C)c2[nH]ccc2c1CN1CCC2(C[C@H]1c1ccc(C(=O)O)cc1)CC(F)(F)C2.Cc1ccc(S(=O)(=O)O)cc1 [Form C, (S)-4-(2,2-difluoro-7-((5-methoxy-7-methyl-1H-indol-4-yl)methyl)-7-azaspiro[3.5]nonan-6-yl)benzoic acid p-toluene sulfonic acid salt]
[1]; [7]
  solubility at 24 h: 0.85 mg/mL
[1]; FaSSGF
  pH at 24 h: 1.56
[1]; FaSSGF, 30 min
  Solubility (mg/mL) 30 min: 0.87 mg/mL
[1]; FaSSIF
  pH at 24 h: 6.25
[1]; FaSSIF, 30 min
  Solubility (mg/mL) 30 min: 1.68 mg/mL
[1]; FaSSIF, 24 h
  Solubility (mg/mL) 24 h: 0.13 mg/mL
[1]; FeSSIF
  pH at 24 h: 4.97
[1]; FeSSIF, 30 min
  Solubility (mg/mL) 30 min: 1.63 mg/mL
[1]; FeSSIF, 24 h
  Solubility (mg/mL) 24 h: 1.69 mg/mL
[1]; Water, initial pH 7.00
  pH at 24 h: 3.37
[1]; Water, initial pH 7.00, 30 min
  Solubility (mg/mL) 30 min: 0.88 mg/mL
[1]; Water, initial pH 7.00, 24 h
  Solubility (mg/mL) 24 h: 1.12 mg/mL
[2]
  moisture absorbed by DVS (absorbs up to): up to 0.4%

## CCO[C@H]1CCN(Cc2c(OC)cc(C)c3[nH]ccc23)[C@H](c2ccc(C(=O)O)cc2)C1 [iptacopan]
[3]
  efficacy in Phase II clinical trial in C3G: reduced proteinuria

## COc1cc(C)c2[nH]ccc2c1CN1CCC2(C[C@H]1c1ccc(C(=O)O)cc1)CC(F)(F)C2 [(S)-4-(2,2-difluoro-7-((5-methoxy-7-methyl-1H-indol-4-yl)methyl)-7-azaspiro[3.5]nonan-6-yl)benzoic acid]
[4]; 2 mg/kg
  Cmax: 3.64 µM
  AUC(0-t): 54.3 µM·h
  concentration at 24 h: 1.73 µM
[4]; 100 mg/kg
  Cmax: 139 µM
  AUC(0-t): 1320 µM·h
  concentration at 24 h: 18.8 µM
[5]
  Cmax: 8.6 µM
[5]; read-out: AUC0-24 h
  AUC(0-t): 96.1 µM·h
[5]; read-out: C24 h
  concentration at 24 h: 1.75 µM
[6]; 2 mg/kg, 2 mg/kg
  AUC(0-t): 20.5 µM·h
  concentration at 24 h: 0.21 µM
[6]; 2 mg/kg
  Cmax: 2.42 µM
[6]; 300 mg/kg, 300 mg/kg
  AUC(0-t): 1110 µM·h
  concentration at 24 h: 18 µM
[6]; 300 mg/kg
  Cmax: 94 µM
